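Grown in 96-well plates, cells were treated for 48 hours with each compound at five concentrations. Insufficient inhibition: endpoint recorded as highest concentration tested. The concentration for 50% growth inhibition is given as GI50.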 Active and inactive are the calls of the source. Cut-off read from the data, not from the text of the source: active = GI50 up to about 1.1 µM and inactive = higher.
Tests used:
Test in all cases: NCI-60 cell line screen, 48 h
NCI-H23 = system: NCI-H23
A549 = system: A549
K562 = system: K562
U-251 = system: U-251
SF-295 = system: SF-295
SN12C = system: SN12C
SK-OV-3 = system: SK-OV-3
RPMI-8226 = system: RPMI-8226
MOLT-4 = system: MOLT-4
KM12 = system: KM12
UO-31 = system: UO-31
SW-620 = system: SW-620
SR = system: SR
OVCAR-5 = system: OVCAR-5
SF-268 = system: SF-268
MDA-MB-435 = system: MDA-MB-435
SNB-19 = system: SNB-19
DU-145 = system: DU-145
COLO 205 = system: COLO 205
HCC 2998 = system: HCC 2998
A498 = system: A498
PC-3 = system: PC-3
MCF7 = system: MCF7
786-0 = system: 786-0
EKVX = system: EKVX
NCI-H226 = system: NCI-H226
CCRF-CEM = system: CCRF-CEM
HOP-62 = system: HOP-62
UACC-62 = system: UACC-62
HCT-116 = system: HCT-116
SF-539 = system: SF-539
OVCAR-3 = system: OVCAR-3
NCI-H522 = system: NCI-H522
BT-549 = system: BT-549
RXF 393 = system: RXF 393
SK-MEL-5 = system: SK-MEL-5
OVCAR-8 = system: OVCAR-8
SNB-75 = system: SNB-75
SK-MEL-28 = system: SK-MEL-28
ACHN = system: ACHN
M14 = system: M14
MDA-MB-231 = system: MDA-MB-231
Hs-578T = system: Hs-578T
UACC-257 = system: UACC-257
LOX IMVI = system: LOX IMVI
HL-60 = system: HL-60
NCI-H460 = system: NCI-H460
OVCAR-4 = system: OVCAR-4
HT-29 = system: HT-29
HOP-92 = system: HOP-92
IGROV-1 = system: IGROV-1
TK-10 = system: TK-10
CAKI-1 = system: CAKI-1
Malme-3M = system: Malme-3M
NCI/ADR-RES = system: NCI/ADR-RES
MDA-N = system: MDA-N
SK-MEL-2 = system: SK-MEL-2
HCT-15 = system: HCT-15

O=C(CNc1ccccc1Cl)Nn1c(-c2ccccc2)nc2ccccc2c1=O
GI50 (NCI-H23): 16.4 µM (inactive)
GI50 (A549): 44.8 µM (inactive)
GI50 (K562): 23.2 µM (inactive)
GI50 (U-251): 17.4 µM (inactive)
GI50 (SF-295): 31.4 µM (inactive)
GI50 (SN12C): 34.4 µM (inactive)
GI50 (SK-OV-3): 38.1 µM (inactive)
GI50 (RPMI-8226): 28.7 µM (inactive)
GI50 (MOLT-4): 13.2 µM (inactive)
GI50 (KM12): 28.6 µM (inactive)
GI50 (UO-31): 47.1 µM (inactive)
GI50 (SW-620): 19.8 µM (inactive)
GI50 (SR): 23.4 µM (inactive)
GI50 (OVCAR-5): > 10 µM (inactive)
GI50 (SF-268): 30.1 µM (inactive)
GI50 (MDA-MB-435): 18.5 µM (inactive)
GI50 (SNB-19): > 10 µM (inactive)
GI50 (DU-145): > 100 µM (inactive)
GI50 (COLO 205): 17.9 µM (inactive)
GI50 (HCC 2998): 19.5 µM (inactive)
GI50 (A498): 49.8 µM (inactive)
GI50 (PC-3): 20.7 µM (inactive)
GI50 (MCF7): 14.8 µM (inactive)
GI50 (786-0): 19.7 µM (inactive)
GI50 (EKVX): 18.6 µM (inactive)
GI50 (NCI-H226): 28.5 µM (inactive)
GI50 (CCRF-CEM): 13.4 µM (inactive)
GI50 (HOP-62): 27.9 µM (inactive)
GI50 (UACC-62): > 10 µM (inactive)
GI50 (HCT-116): 25.2 µM (inactive)
GI50 (SF-539): 21.6 µM (inactive)
GI50 (OVCAR-3): 23.1 µM (inactive)
GI50 (NCI-H522): > 10 µM (inactive)
GI50 (BT-549): 12.8 µM (inactive)
GI50 (RXF 393): 20.3 µM (inactive)
GI50 (SK-MEL-5): 10.2 µM (inactive)
GI50 (OVCAR-8): 40.7 µM (inactive)
GI50 (SNB-75): 16.8 µM (inactive)
GI50 (SK-MEL-28): 21.2 µM (inactive)
GI50 (ACHN): 37.4 µM (inactive)
GI50 (M14): > 10 µM (inactive)
GI50 (MDA-MB-231): > 10 µM (inactive)
GI50 (Hs-578T): 25.6 µM (inactive)
GI50 (UACC-257): 50.6 µM (inactive)
GI50 (LOX IMVI): 14.7 µM (inactive)
GI50 (HL-60): 22.4 µM (inactive)
GI50 (NCI-H460): 78.5 µM (inactive)
GI50 (OVCAR-4): 26.4 µM (inactive)
GI50 (HT-29): > 10 µM (inactive)
GI50 (HOP-92): 13.4 µM (inactive)
GI50 (IGROV-1): 23.7 µM (inactive)
GI50 (TK-10): 44 µM (inactive)

CC(C(=O)O)c1ccc(-n2nnc3c(=O)[nH][nH]c(=O)c32)cc1 (stereo not given)
GI50 (NCI-H23): > 100 µM (inactive)
GI50 (A549): > 100 µM (inactive)
GI50 (K562): > 100 µM (inactive)
GI50 (U-251): > 100 µM (inactive)
GI50 (SF-295): > 100 µM (inactive)
GI50 (SN12C): > 100 µM (inactive)
GI50 (CAKI-1): > 100 µM (inactive)
GI50 (RPMI-8226): > 100 µM (inactive)
GI50 (Malme-3M): > 100 µM (inactive)
GI50 (MOLT-4): > 100 µM (inactive)
GI50 (KM12): > 100 µM (inactive)
GI50 (UO-31): > 100 µM (inactive)
GI50 (SR): > 100 µM (inactive)
GI50 (OVCAR-5): > 100 µM (inactive)
GI50 (MDA-MB-435): > 100 µM (inactive)
GI50 (SNB-19): > 100 µM (inactive)
GI50 (DU-145): > 100 µM (inactive)
GI50 (NCI/ADR-RES): > 100 µM (inactive)
GI50 (COLO 205): > 100 µM (inactive)
GI50 (HCC 2998): > 100 µM (inactive)
GI50 (PC-3): > 100 µM (inactive)
GI50 (MCF7): > 100 µM (inactive)
GI50 (EKVX): > 100 µM (inactive)
GI50 (CCRF-CEM): > 100 µM (inactive)
GI50 (HOP-62): > 100 µM (inactive)
GI50 (HCT-116): > 100 µM (inactive)
GI50 (OVCAR-3): > 100 µM (inactive)
GI50 (MDA-N): > 100 µM (inactive)
GI50 (BT-549): > 100 µM (inactive)
GI50 (SK-MEL-5): > 100 µM (inactive)
GI50 (OVCAR-8): > 100 µM (inactive)
GI50 (SK-MEL-28): > 100 µM (inactive)
GI50 (ACHN): > 100 µM (inactive)
GI50 (M14): > 100 µM (inactive)
GI50 (MDA-MB-231): > 100 µM (inactive)
GI50 (SK-MEL-2): > 100 µM (inactive)
GI50 (UACC-257): > 100 µM (inactive)
GI50 (LOX IMVI): > 100 µM (inactive)
GI50 (HL-60): > 100 µM (inactive)
GI50 (NCI-H460): > 100 µM (inactive)
GI50 (OVCAR-4): > 100 µM (inactive)
GI50 (HCT-15): > 100 µM
GI50 (TK-10): > 100 µM (inactive)

Source: ChEMBL document CHEMBL1201862, “PubChem BioAssay data set” (2004)
